Assay results published in patent US12115140B2, “Method of treating adenoid cystic carcinoma” (THE TRUSTEES OF COLUMBIA UNIVERSITY IN THE CITY OF NEW YORK, priority 2020, dated 2024).

Columns and labels:
[1] = system: ACCX5M1 organoid cultures, ductal-like (CD49f^low, KIT^+) cells; assay: Organoid cultures of ACCX5M1 PDX line treated one week: inverse agonists versus neutral antagonist, flow cytometry; format: cell-based, human; settings: for killing of ductal-like (CD49f^low, KIT^+) cells: ACCs cultured in vitro as three-dimensional (3D) organoids
Experimental: Further, as shown in FIGS. 6A-10, the efficacies of the inverse agonists BMS493 and AGN193109 were compared against a neutral antagonist (BMS195614). For FIGS. 6A-8, organoid cultures from a patient derived xenograft line (ACCX5M1) were treated for one week with DMSO (as a control), the neutral antagonist (BMS195614, 1 μM, 10 μM) or the inverse agonists (BMS493 1 μM, BMS493 10 μM, AGN193109 10 μM). The graphs display the percentage of KIT+ cells in each culture condition. FIG. 6A is a scatter plot displaying the relative content of myoepithelial-like cells and ductal-like cells in a primary in vitro organoid culture of the ACCX5M1 patient-derived xenograft (PDX) line treated with DMSO for 7 days and analyzed by flow cytometry. FIG. 6B is a scatter plot displaying the relative content of myoepithelial-like cells and ductal-like cells in a primary in vitro organoid culture of the ACCX5M1 patient-derived xenograft (PDX) line treated with the neutral antagonist BMS195614 (1 μM) for 7 days and analyzed by flow cytometry. FIG. 6C is a scatter plot displaying the relative content of myoepithelial-like cells and ductal-like cells in a primary in vitro organoid culture of the ACCX5M1 patient-derived xenograft (PDX) line treated with the neutral antagonist BMS195614 (10 μM) for 7 days and analyzed by flow cytometry.
FIG. 7A is a scatter plot displaying the relative content of myoepithelial-like cells and ductal-like cells in a primary in vitro organoid culture of the ACCX5M1 patient-derived xenograft (PDX) line treated with the inverse agonist BMS493 (1 μM) after one week. FIG. 7B is a scatter plot displaying the relative content of myoepithelial-like cells and ductal-like cells in a primary in vitro organoid culture of the ACCX5M1 patient-derived xenograft (PDX) line treated with the inverse agonist BMS493 (10 μM) for 7 days and analyzed by flow cytometry. FIG. 7C is a scatter plot displaying the relative content of myoepithelial-like cells and ductal-like cells in a primary in vitro organoid culture of the ACCX5M1 patient-derived xenograft (PDX) line treated with the inverse agonist AGN193109 (10 μM) for 7 days and analyzed by flow cytometry. FIG. 8 is a bar graph comparing the percentage of ductal-like (CD49f^low, KIT^+) cells after one week from each of the treatments of FIGS. 6A-7C. FIG. 9 is a bar graph comparing the percentage of ductal-like (CD49f^low, KIT^+) cells after one week from the treatments of FIGS. 6A, 6C, 7B and 7C. FIG. 10 is a bar graph comparing the percentage of EpCAM^+/DAPI^+ cells (i.e., dead epithelial cells) after one week from each of the treatments of FIGS. 6A-7C. […] It should be noted that in FIGS. 8-10, BMS195614 has been abbreviated as “BMS195” due to the available space in the Figures.

ACCX9 primary cultures = assay: Microscope images of ACCX9 primary cultures; format: cell-based, human; settings: 10 μM, 7 days
Excerpt: FIGS. 3G, 3H and 3I are microscope images of ACCX9 primary cultures treated with DMSO, BMS493 and AGN193109, respectively. […] With reference to FIGS. 3E-3F, combination treatments may be used, based on the use of inverse agonists of RAR/RXR signaling (e.g., BMS493 or AGN193109) as radio-sensitizers and/or chemo-sensitizers (i.e., agents able to increase the cytotoxic activity of radiotherapy and/or chemotherapy).

[2] = system: human ACC primary cultures (ACCX5M1, ACCX9); assay: Cell viability / cytotoxic activity in primary cultures of ACC PDX lines; format: cell-based; settings: for cell viability: ACCX5M1, vs DMSO control cultures, FIG. 3E; for cytotoxic activity: ACCX9 (solid histology), FIG. 3F
Excerpt: With reference to FIGS. 3E-3F, combination treatments may be used, based on the use of inverse agonists of RAR/RXR signaling (e.g., BMS493 or AGN193109) as radio-sensitizers and/or chemo-sensitizers (i.e., agents able to increase the cytotoxic activity of radiotherapy and/or chemotherapy).

[3] = system: CD49f^low, KIT^+ (ductal-like) and CD49f^high, KIT^neg (myoepithelial-like) cells of human ACCs; assay: Flow cytometry of short-term primary cultures from ACC PDX lines: relative content of ductal-like and myoepithelial-like cells; format: cell-based; settings: for significance of reduction in percentage of CD49f^low, KIT^+ (ductal-like) cells: at both 1 μM and 10 μM, ACCX5M1 and SGTX6, vs NT or DMSO; for percentage of myoepithelial-like cells (CD49f^high, KIT^neg): ACCX5M1, direct agonists, vs DMSO
Excerpt: From a histological point of view, ACCs are usually characterized by a “bi-phasic differentiation” (i.e., the malignant tissues contain two distinct cell populations, which are commonly referred to as “myoepithelial-like” and “ductal-like” cells). A combination of cell surface markers (CD49f, KIT) have been discovered which enable the differential purification and accurate quantification of the two populations using fluorescence activated cell sorting (FACS). It has further been discovered that myoepithelial-like (CD49f^high, KIT^neg) cells are associated with more aggressive biological properties as compared to ductal-like (CD49f^low, KIT^+) cells when tested for their tumorigenic capacity (i.e., their capacity to sustain the formation of a new tumor upon xeno-transplantation in immuno-deficient mice).
FIGS. 1A-1F and 2A-2D illustrate the in vitro anti-tumor activity of BMS493 against human ACCs. FIGS. 1A and 1B show the results of a short-term primary culture from a patient-derived xenograft (PDX) line representative of human ACCs with “cribriform” histology (ACCX5M1) treated in vitro with BMS493 (10 μM) for 7 days and then analyzed by flow cytometry. FIGS. 1C and 1D show the results of a short-term primary culture from a patient-derived xenograft (PDX) line representative of human ACCs with “cribriform” histology (SGTX6) treated in vitro with BMS493 (10 μM) for 7 days and then analyzed by flow cytometry. FIGS. 1E and 1F show the results of a short-term primary culture from a patient-derived xenograft (PDX) line representative of human ACCs with “cribriform” histology (ACCX6) treated in vitro with BMS493 (10 μM) for 7 days and then analyzed by flow cytometry.
FIGS. 3A-3I illustrate the in vitro anti-tumor activity of BMS493 and AGN193109 against human ACCs. FIGS. 3A and 3B show comparison plots of short-term primary cultures from two patient-derived xenograft (PDX) lines representative of human ACCs with “cribriform” histology (SGTX6 and ACCX5M1, respectively), which were treated in vitro for 7 days with either BMS493 or AGN193109 and then analyzed by flow cytometry.

[4] = system: myoepithelial-like cells (CD49f^high, KIT^neg) isolated by FACS from solid tumors; assay: Sorted myoepithelial-like cells (FACS) stimulated in vitro with direct RAR agonist; format: cell-based, human; settings: ATRA 10 μM (also printed 10 mM), 7 days
[5] = system: CD49f^low, KIT^+ (ductal-like) and CD49f^high, KIT^neg (myoepithelial-like) cells of human ACCs; assay: Flow cytometry of short-term primary cultures from ACC PDX lines: relative content of ductal-like and myoepithelial-like cells; format: cell-based; settings: 10 μM, 7 days; ACCX5M1; direct agonists; vs DMSO
[6] = system: human ACC tumor cells (PDX lines SGTX6, ACCX6, ACCX9, ACCX11); assay: Percentage of dead tumor cells (EpCAM^+/DAPI^+) in primary cultures of ACC PDX lines by flow cytometry; format: cell-based
Excerpt: (§1) It should be noted that in FIGS. 2A and 2B, the percentage of dead tumor cells is reported as a percentage of the human epithelial cells that incorporate DAPI (i.e. EpCAM^+/DAPI^+) and excludes any contaminant of mouse cells from the primary tissues that were used to generate the cultures (i.e. excludes cells expressing H-2K^d and/or mCd45).
as §1, with “2C” for “2A”, “2D,” for “2B,”

[7] = system: human ACCs engrafted in mice (ACCX5M1, SGTX6, ACCX9); assay: In vivo growth kinetics of ACC PDX lines engrafted subcutaneously in NSG immune-deficient mice
Experimental: Three independent patient-derived xenograft (PDX) lines representative of human ACCs (ACCX5M1, SGTX6, ACCX9) were engrafted in the subcutaneous (s.c.) tissue of NOD/SCID/IL2Rγ^−/− (NS G) immune-deficient mice and left growing until they reached a size of approximately 700 mm^3. Tumor-bearing mice were then divided into two cohorts, one of which was treated with BMS493 (40 mg/kg X 3-4 days/week), while the other received only DMSO (i.e., the solvent used as a vehicle to resuspend BMS493).

[8] = 7 days, SGTX6 and ACCX5M1, FIGS. 3A, 3B
[9] = 10 μM, 7 days, ACCX5M1, SGTX6, ACCX6 (cribriform), vs untreated
[10] = ACCX5M1 organoids, one week, FIG. 8

| SMILES | killing of ductal-like (CD49f^low, KIT^+) cells [1] | cell morphology in microscope images (ACCX9 primary cultures) | cell viability [2] | cytotoxic activity [2] | percentage of CD49f^low, KIT^+ (ductal-like) cells [3, 8] | significance of reduction in percentage of CD49f^low, KIT^+ (ductal-like) cells [3] | percentage of ductal-like cells (CD49f^low, KIT^+) [5] | percentage of myoepithelial-like cells (CD49f^high, KIT^neg) ([3]; 10 μM, 7 days) | also measured |
| --- | --- | --- | --- | --- | --- | --- | --- | --- | --- |
| Cc1ccc(C2=CCC(C)(C)c3ccc(C#Cc4ccc(C(=O)O)cc4)cc32)cc1 [AGN193109, 4-[2-[5,6-Dihydro-5,5-dimethyl-8-(4-methylphenyl)-2-naphthalenyl]ethynyl]benzoic acid] | able to selectively kill | widespread cell fragmentation | reduction in cell viability | clear cytotoxic activity | dramatic reduction | statistically significant | – | – | – |
| CC1=C(/C=C/C(C)=C/C=C/C(C)=C/C(=O)O)C(C)(C)CCC1 [ATRA, all-trans retinoic acid] | – | – | – | – | – | – | increase | reduction | differentiation of sorted myoepithelial-like cells into ductal-like cells [4]: differentiation of myoepithelial-like cells |
| CC1(C)CC=C(C#Cc2ccccc2)c2cc(/C=C/c3ccc(C(=O)O)cc3)ccc21 [BMS493, 4-[(1E)-2-[5,6-Dihydro-5,5-dimethyl-8-(2-phenylethynyl)-2-naphthalenyl]ethenyl]benzoic acid] | able to selectively kill | widespread cell fragmentation | reduction in cell viability | clear cytotoxic activity | dramatic reduction | statistically significant | – | – | percentage of dead cells (EpCAM^+/DAPI^+) ([1]; ACCX5M1 organoids, one week, BMS493 10 μM, BMS195614 1 μM, 10 μM, FIG. 10): significant increase; percentage of CD49f^high, KIT^neg (myoepithelial-like) cells [3, 9]: corresponding relative increase; percentage of CD49f^low, KIT^+ (ductal-like) cells [3, 9]: dramatic reduction; percentage of dead (DAPI^+) cells ([6]; ACCX9 and ACCX11 (solid histology)): substantial increase; percentage of dead tumor cells (EpCAM^+/DAPI^+) ([6]; SGTX6 and ACCX6 (cribriform), vs NT, DMSO or ATRA): substantial increase; tumor growth (change in tumor volume over time) ([7]; 40 mg/kg X 3-4 days/week, ACCX5M1, SGTX6, ACCX9 s.c. in NSG mice, vs DMSO): either growth arrest or tumor shrinkage; activity against human ACCs engrafted in mice ([7]; dosing regimens from 10 mg/kg (once daily X 21 days) up to 40 mg/kg (4 times/week X 3 weeks)): active |
| CC1(C)CC=C(c2cnc3ccccc3c2)c2cc(C(=O)Nc3ccc(C(=O)O)cc3)ccc21 [BMS195614] | – | – | – | – | – | – | – | – | change in percentage of ductal-like (CD49f^low, KIT^+) cells on raising concentration from 1 μM to 10 μM [1, 10]: does not translate in a significant decrease; percentage of ductal-like (CD49f^low, KIT^+) cells relative to BMS493 and AGN193109 [1, 10]: remains statistically superior; anti-tumor effect relative to inverse agonists BMS493 and AGN193109 ([1]; at both doses, 1 μM and 10 μM): clearly systematically inferior |
| C=C(c1ccc(C(=O)O)cc1)c1cc2c(cc1C)C(C)(C)CCC2(C)C [bexarotene] | – | – | – | – | – | – | increase | reduction | – |
